Values belong to the compound of their own block, whether it stands above or below them. Activity calls are given as the source filed them. Cut-off read from the data, not from the text of the source, for most assays here: actives have a measured IC50 and inactives only a lower limit.
Columns and labels:
[1] = molecular target: T1, Heat shock factor protein 1 (Mus musculus, UniProt P38532); experiment: HSF1 potentiators in luciferase reporter cells, confirmation, cell-based, NIH3T3, luminescence, dose retest (AID 435004); type: functional;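 note: stress induced by proteasome inhibitor MG132 added 30 min after compound; luciferase reporter driven by HSF1 response element in NIH3T3 cells; actives raise luminescence as potentiators of the MG132 stress response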
T1 sequence (P38532 whole entry): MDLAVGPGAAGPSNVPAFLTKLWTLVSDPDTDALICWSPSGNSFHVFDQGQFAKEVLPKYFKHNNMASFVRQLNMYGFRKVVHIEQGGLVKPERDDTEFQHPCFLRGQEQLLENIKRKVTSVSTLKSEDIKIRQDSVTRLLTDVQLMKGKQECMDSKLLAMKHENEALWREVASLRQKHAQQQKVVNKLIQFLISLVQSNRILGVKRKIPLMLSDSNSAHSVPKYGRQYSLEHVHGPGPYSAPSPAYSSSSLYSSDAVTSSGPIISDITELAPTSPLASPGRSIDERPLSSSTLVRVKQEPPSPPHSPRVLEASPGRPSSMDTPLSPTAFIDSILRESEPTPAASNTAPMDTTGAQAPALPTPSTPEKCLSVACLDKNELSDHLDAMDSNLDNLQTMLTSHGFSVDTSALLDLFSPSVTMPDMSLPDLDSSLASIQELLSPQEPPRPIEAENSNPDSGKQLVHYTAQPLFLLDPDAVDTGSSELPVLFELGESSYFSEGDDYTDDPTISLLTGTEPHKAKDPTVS

[2] = molecular target: T2, Voltage-gated N-type calcium channel alpha-1B subunit/Amyloid beta A4 precursor protein-binding family A member 1 (Homo sapiens, UniProt Q00975+Q02410); type: protein assay
T2 sequence (Q00975 whole entry): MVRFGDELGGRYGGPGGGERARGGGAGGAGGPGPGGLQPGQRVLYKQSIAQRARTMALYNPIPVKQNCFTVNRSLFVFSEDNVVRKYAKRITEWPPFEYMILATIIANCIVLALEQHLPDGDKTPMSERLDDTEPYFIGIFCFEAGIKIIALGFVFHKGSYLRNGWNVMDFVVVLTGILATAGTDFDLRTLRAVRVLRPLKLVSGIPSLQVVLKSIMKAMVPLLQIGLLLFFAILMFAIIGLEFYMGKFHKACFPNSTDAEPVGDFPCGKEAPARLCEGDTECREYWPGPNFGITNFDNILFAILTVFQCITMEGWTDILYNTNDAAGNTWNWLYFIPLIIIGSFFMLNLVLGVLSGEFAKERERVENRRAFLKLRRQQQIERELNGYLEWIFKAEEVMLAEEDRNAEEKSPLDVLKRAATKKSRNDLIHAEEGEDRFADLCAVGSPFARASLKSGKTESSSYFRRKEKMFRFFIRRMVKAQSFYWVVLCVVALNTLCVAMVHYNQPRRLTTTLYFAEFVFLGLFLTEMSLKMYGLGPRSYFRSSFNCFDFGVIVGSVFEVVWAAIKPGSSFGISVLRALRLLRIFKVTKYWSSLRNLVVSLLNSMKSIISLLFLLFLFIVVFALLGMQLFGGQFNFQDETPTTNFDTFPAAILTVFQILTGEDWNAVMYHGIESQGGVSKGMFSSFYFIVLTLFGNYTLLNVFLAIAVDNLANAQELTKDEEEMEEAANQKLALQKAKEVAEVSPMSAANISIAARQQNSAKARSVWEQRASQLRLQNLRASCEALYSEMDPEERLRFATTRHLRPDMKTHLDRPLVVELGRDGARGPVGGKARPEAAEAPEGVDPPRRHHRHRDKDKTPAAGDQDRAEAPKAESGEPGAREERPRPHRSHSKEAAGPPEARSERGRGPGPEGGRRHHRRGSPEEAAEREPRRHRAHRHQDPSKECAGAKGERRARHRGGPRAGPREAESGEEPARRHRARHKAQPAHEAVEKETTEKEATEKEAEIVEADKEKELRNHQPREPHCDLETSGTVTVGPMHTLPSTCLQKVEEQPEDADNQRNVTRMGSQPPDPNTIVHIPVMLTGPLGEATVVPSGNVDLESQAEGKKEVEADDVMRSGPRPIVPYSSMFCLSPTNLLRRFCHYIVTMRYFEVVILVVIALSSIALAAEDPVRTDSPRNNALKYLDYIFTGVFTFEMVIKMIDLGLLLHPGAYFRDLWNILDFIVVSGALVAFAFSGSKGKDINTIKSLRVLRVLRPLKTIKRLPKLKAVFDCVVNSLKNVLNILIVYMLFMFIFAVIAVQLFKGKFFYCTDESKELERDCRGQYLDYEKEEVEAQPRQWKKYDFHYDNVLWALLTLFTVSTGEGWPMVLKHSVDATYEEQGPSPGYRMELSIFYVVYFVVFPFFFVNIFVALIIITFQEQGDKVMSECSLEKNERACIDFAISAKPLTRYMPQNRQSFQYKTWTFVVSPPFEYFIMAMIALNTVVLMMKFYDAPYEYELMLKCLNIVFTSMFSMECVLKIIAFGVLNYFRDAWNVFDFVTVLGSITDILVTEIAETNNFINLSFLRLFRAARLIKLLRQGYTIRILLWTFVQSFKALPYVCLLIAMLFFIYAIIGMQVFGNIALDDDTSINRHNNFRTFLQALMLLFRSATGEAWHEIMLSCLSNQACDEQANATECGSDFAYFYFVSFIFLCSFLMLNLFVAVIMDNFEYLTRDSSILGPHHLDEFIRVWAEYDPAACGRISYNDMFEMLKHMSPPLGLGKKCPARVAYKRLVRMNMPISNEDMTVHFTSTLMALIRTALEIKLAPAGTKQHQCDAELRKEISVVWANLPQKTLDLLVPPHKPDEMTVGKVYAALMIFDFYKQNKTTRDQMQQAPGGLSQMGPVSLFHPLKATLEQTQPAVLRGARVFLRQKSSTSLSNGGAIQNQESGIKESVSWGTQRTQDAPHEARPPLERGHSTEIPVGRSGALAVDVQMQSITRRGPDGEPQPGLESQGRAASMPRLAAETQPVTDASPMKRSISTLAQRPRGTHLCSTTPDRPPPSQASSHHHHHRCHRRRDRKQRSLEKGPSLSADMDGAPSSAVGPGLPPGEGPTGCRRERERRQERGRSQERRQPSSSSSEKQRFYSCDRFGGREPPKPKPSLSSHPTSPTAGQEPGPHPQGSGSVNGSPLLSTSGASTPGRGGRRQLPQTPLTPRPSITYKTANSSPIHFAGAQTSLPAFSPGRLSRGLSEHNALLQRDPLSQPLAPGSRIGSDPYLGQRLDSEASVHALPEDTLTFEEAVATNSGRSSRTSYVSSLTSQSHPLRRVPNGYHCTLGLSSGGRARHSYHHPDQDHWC
T2 sequence (Q02410 whole entry): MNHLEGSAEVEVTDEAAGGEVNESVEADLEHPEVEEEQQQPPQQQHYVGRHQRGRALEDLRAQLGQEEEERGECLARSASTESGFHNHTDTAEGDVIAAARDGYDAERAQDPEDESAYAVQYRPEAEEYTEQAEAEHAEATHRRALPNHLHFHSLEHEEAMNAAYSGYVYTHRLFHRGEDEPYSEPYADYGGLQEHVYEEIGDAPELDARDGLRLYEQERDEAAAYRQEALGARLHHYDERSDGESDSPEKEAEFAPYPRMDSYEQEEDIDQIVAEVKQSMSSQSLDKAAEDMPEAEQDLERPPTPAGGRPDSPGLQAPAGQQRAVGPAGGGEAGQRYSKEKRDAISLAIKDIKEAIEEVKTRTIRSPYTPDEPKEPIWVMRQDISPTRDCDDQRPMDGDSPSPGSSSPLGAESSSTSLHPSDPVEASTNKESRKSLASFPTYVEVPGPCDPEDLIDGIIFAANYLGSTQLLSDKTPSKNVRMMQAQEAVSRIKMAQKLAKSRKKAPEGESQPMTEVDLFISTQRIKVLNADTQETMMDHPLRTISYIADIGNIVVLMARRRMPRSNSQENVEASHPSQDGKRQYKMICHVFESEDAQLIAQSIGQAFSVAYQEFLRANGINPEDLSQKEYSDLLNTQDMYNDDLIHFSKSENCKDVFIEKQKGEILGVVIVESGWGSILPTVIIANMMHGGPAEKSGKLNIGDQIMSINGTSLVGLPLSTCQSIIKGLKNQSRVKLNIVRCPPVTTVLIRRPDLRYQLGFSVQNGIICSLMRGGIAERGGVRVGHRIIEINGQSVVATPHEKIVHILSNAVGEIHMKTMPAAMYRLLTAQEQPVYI

[3] = molecular target: T3, Microphthalmia-associated transcription factor (Homo sapiens, UniProt O75030); experiment: TRPM1 promoter luciferase signal decrease, dose response, MITF inhibitor project, cell-based, SK-MEL-5, cherry-picked, set 3 (AID 493073); type: functional
T3 sequence (O75030 whole entry): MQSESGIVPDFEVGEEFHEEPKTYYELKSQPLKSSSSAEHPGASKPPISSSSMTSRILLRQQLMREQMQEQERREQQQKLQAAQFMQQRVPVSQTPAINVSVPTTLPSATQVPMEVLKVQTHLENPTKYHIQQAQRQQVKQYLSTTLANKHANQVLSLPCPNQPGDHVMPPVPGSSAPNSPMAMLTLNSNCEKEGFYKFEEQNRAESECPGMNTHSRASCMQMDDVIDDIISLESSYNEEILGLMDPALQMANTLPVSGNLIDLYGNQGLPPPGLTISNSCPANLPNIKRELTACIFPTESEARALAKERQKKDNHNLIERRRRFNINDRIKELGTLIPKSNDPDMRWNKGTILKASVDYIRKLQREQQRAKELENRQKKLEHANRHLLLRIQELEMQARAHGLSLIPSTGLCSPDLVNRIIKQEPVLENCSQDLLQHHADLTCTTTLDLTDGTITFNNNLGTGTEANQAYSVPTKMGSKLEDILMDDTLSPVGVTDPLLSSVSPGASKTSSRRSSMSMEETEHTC

[4] = molecular target: T2, Voltage-gated N-type calcium channel alpha-1B subunit/Amyloid beta A4 precursor protein-binding family A member 1; type: protein assay; remark: listed apart in the source
[5] = molecular target: DNA dC->dU-editing enzyme APOBEC-3A (Homo sapiens, UniProt P31941); experiment: APOBEC3A DNA deaminase inhibitors, dose response, biochemical (AID 504722); type: functional
Sequence of DNA dC->dU-editing enzyme APOBEC-3A (P31941 whole entry): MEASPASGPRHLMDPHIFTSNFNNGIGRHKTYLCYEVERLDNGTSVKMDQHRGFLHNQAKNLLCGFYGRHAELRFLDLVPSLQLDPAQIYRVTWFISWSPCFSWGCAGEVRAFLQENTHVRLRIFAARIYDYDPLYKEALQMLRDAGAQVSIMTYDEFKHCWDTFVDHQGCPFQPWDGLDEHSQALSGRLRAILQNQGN

[6] = molecular target: T4, Rac GTPase-activating protein 1 (Homo sapiens, UniProt Q9H0H5); experiment: MgcRacGAP GTPase-activating activity inhibitors, confirmation, biochemical, ADP Hunter fluorescence, primary and confirmatory (AID 624330); type: functional
T4 sequence (Q9H0H5 whole entry): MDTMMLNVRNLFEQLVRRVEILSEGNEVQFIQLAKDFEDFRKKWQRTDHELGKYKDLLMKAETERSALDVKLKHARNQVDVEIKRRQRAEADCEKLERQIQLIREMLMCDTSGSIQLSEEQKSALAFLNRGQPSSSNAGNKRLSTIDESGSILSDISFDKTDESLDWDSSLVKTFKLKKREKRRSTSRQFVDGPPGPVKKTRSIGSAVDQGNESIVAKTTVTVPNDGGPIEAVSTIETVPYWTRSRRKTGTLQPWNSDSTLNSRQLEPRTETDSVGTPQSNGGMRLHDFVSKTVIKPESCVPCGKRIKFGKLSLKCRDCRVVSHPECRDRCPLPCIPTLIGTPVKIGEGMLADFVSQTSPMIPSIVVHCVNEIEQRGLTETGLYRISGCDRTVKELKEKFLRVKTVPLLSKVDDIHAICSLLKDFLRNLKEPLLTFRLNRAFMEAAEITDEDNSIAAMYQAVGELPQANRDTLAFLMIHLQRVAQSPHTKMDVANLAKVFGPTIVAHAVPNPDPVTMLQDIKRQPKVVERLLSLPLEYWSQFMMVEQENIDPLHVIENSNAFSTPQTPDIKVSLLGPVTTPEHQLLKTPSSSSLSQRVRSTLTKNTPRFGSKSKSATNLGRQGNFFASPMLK

[7] = molecular target: DNA dC->dU-editing enzyme APOBEC-3G (Homo sapiens, UniProt Q9HC16); experiment: Dose Response confirmation of small molecule APOBEC3G DNA Deaminase Inhibitors via a fluorescence-based single-stranded DNA deaminase assay. [Related pubchem assays (depositor defined):AID493012, AID493028]; type: functional
SUMO-activating enzyme [8] = molecular target: T5, SUMO-activating enzyme (Homo sapiens, UniProt Q9UBT2); experiment: inhibitors of in vitro SUMOylation cascade, primary screen, biochemical, HTRF, uHTS (AID 2006); type: protein-complex assay
T5 sequence (Q9UBE0 whole entry): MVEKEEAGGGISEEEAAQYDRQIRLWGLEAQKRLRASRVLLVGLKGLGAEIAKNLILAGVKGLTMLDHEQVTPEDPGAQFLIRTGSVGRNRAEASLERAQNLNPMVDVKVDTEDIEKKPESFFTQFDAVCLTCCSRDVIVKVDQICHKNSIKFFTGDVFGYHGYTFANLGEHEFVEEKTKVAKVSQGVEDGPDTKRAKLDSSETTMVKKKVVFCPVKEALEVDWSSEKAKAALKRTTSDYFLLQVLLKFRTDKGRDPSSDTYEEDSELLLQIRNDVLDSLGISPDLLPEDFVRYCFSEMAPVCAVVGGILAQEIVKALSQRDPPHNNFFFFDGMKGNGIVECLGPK
T5 sequence (Q9UBT2 whole entry): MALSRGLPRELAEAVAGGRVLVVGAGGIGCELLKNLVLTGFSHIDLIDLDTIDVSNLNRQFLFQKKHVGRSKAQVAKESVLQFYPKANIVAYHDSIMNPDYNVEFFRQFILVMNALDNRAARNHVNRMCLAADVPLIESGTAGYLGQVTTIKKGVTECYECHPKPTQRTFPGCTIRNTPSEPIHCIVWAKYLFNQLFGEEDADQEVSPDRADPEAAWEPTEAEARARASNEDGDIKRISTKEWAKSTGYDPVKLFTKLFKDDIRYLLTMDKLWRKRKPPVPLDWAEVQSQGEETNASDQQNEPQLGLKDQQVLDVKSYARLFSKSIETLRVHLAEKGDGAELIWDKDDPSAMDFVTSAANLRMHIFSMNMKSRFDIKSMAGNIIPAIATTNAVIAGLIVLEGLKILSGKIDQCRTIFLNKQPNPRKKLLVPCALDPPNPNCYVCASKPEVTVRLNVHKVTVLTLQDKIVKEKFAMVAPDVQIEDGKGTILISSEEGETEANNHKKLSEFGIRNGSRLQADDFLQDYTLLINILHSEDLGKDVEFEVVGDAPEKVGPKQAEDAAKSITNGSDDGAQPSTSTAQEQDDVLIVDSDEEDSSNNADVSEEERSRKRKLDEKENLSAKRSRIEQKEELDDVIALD

[9] = Luminescence Cell-Based Dose Retest to Confirm Inhibitors of Cancer Stem Cells. [Related pubchem assays (depositor defined):AID2717, AID2721]; type: functional; conditions: Homo sapiens
SUMO-activating enzyme [10] = molecular target: T5, SUMO-activating enzyme; experiment: SUMOylation inhibitor hit validation, confirmation, SUMOylation inhibitor project, biochemical, AlphaScreen (AID 2018); type: functional
Hexokinase = molecular target: T6, Hexokinase (Trypanosoma brucei, UniProt Q38C41); experiment: Confirmation assay for inhibitors of Trypanosoma brucei hexokinase 1-Analogue-first series. [Related pubchem assays (depositor defined):AID1430, AID1632, AID2516, AID2560, AID2579, AID2600, AID449725, AID492951]; type: functional
T6 sequence (Q38C41 whole entry): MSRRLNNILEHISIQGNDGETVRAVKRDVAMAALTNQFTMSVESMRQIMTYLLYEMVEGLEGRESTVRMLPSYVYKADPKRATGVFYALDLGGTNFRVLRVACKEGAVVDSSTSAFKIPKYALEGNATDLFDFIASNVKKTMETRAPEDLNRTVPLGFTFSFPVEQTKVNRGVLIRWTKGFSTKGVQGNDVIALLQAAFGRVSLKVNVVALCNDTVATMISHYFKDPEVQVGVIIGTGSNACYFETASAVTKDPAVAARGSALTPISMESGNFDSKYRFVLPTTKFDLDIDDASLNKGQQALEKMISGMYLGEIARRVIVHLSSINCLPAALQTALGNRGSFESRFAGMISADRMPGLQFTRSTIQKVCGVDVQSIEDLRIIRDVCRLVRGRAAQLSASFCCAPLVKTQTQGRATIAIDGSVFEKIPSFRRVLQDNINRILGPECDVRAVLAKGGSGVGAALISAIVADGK

[11] = molecular target: T7, E3 ubiquitin-protein ligase XIAP (Homo sapiens, UniProt P98170); experiment: XIAP antagonists, biochemical, IAP family, fluorescence polarization (AID 1018); type: functional
T7 sequence (P98170 whole entry): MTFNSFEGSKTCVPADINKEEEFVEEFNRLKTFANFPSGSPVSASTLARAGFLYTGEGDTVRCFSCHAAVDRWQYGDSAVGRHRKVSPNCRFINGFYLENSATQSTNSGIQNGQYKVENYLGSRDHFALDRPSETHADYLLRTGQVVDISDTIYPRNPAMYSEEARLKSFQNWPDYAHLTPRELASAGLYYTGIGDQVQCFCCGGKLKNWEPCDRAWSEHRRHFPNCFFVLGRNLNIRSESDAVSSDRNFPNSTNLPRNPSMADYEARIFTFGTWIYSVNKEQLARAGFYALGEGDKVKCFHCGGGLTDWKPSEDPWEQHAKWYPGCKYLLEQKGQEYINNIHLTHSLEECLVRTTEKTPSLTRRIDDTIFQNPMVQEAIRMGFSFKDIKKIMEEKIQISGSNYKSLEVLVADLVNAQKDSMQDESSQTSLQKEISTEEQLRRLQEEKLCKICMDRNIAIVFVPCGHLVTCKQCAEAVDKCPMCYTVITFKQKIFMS

[12] = molecular target: T7, E3 ubiquitin-protein ligase XIAP; experiment: Counter Screen using XIAP-Bir3 for Chemical Antagonists of Bir1/2 domains of IAP-family anti-apoptotic proteins. [Related pubchem assays (depositor defined):AID1018, AID1449, AID1514, AID1638, AID1749, AID1750, AID488957, AID488963]
[13] = molecular target: T8, Alkaline phosphatase, tissue-nonspecific isozyme (Homo sapiens, UniProt P05186); experiment: human TNAP enzyme inhibitors, SAR follow-up, biochemical, luminescent, dose response (AID 1056)
T8 sequence (P05186 whole entry): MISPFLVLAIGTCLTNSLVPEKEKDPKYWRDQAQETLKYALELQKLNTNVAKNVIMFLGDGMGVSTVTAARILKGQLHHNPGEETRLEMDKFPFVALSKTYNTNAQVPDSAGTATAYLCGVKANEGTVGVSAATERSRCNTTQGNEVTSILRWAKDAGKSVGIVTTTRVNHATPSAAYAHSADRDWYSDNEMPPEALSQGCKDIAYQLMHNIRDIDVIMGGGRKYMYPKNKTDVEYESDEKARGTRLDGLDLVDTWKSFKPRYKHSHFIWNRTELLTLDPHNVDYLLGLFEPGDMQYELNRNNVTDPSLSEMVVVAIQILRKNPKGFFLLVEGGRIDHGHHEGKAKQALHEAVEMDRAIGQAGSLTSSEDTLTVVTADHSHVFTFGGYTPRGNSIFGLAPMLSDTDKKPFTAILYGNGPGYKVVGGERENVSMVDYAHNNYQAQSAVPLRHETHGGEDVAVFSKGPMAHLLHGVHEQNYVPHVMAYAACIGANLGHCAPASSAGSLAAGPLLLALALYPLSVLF

[14] = molecular target: Glyceraldehyde-3-phosphate dehydrogenase (Homo sapiens, UniProt P04406)

Structure (SMILES): O=C(Nc1nnc(S)s1)c1ccco1
IC50 [5]: > 100 µM (inactive)
IC50 [6]: 102 µM (active)
IC50 [7]: 5.51 µM (active)

Structure (SMILES): O=C1C(C2=NC(c3ccccn3)C3C(=O)N(c4ccc(Cl)cc4Cl)C(=O)C23)=C(O)c2ccccc21 (stereo unspecified)
IC50 (SUMO-activating enzyme [8]): 15 µM (active)
AC50 [9]: 13.6 µM (active)
IC50 (SUMO-activating enzyme [10]): 34.6 µM (active)

Structure (SMILES): CC(C)c1cccc(C(=O)Nc2cc(Cl)ccc2C(=O)O)c1
IC50 (Hexokinase): > 25 µM (inactive)

Structure (SMILES): CN1CCN(C(=O)Cc2nc3ccccc3[nH]2)CC1
IC50 [11]: > 100 µM (not active)
IC50 [12]: > 100 µM (inactive)

Structure (SMILES): N#Cc1cc2c([nH]c1=S)CCCC2
IC50 [5]: > 100 µM (inactive)
IC50 [7]: 5.16 µM (active)

Structure (SMILES): c1c(CN2CCCCC2)n[nH]c1C1CCCCC1
IC50 [11]: > 100 µM (not active)
IC50 [12]: > 100 µM (inactive)

Structure (SMILES): COc1ccc(CC(=O)Nc2cc(Cl)ccc2C(=O)O)cc1
IC50 (Hexokinase): > 25 µM (inactive)

Structure (SMILES): CCc1ccc(-n2c(=O)c3ccccc3n3c(S)nnc23)cc1.CN(C)C=O
IC50 [5]: > 100 µM (inactive)
IC50 [7]: 4.9 µM (active)

Continued, values first:

EC50 [1]: 11 µM (active)
IC50 [2]: 9.89 µM (active)
AC50 [3]: 7.35 µM (active)
IC50 [4]: 29.4 µM (active)
Structure (SMILES): CCOc1cc(/C=C\[N+](=O)[O-])ccc1OCC(=O)N1CCOCC1

IC50 [13]: > 100 µM (inactive)
IC50 [14]: > 100 µM (not active)
Structure (SMILES): Cc1ccccc1S(=O)(=O)Nc1nc2ccccc2nc1Cl

IC50 [13]: > 100 µM (inactive)
IC50 [14]: > 100 µM (not active)
Structure (SMILES): COc1ccc(OC)c(S(=O)(=O)n2cc(C(N)=O)c3ccccc32)c1

IC50 (SUMO-activating enzyme [10]): 14.3 µM (active)
Structure (SMILES): N#Cc1c(=O)c2nc(NCc3ccccc3)ncc2n2ccccc12

IC50 [2]: 28 µM (active)
IC50 [4]: > 50 µM (inactive)
Structure (SMILES): Cc1ccc(N(CC(O)COCc2ccco2)S(=O)(=O)c2ccc(C)cc2)cc1 (stereo unspecified)

IC50 [11]: > 100 µM (not active)
IC50 [12]: > 100 µM (inactive)
Structure (SMILES): C/C(Cn1nnc([N+](=O)[O-])n1)=N\NC(=O)c1ccc(C)cc1

IC50 [13]: 0.6 µM (active)
IC50 [14]: > 100 µM (not active)
Structure (SMILES): COC(=O)c1cc(-c2ccc3ccccc3c2)[nH]n1
